Like-named read-outs stand apart in the source and are kept apart here.
Tests used:
Assay type in all cases: cell-based
PBMCs = experiment: CTG (CellTiter-Glo) viability assay in PBMCs; conditions: LPS and nigericin stimulated
Procedure, shortened: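 Human donor PBMCs were primed with 100 ng/mL LPS for 3 h, pre-treated with compound (0.00017–10 µM) for 30 min in FBS-free medium, then stimulated with 10 µM nigericin for 1.5 h. Viability was read as cellular ATP by CellTiter-Glo, a cytotoxicity counter-screen to IL-1β release.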

Kupffer cells = experiment: CTG (CellTiter-Glo) viability assay in Kupffer cells; conditions: human Kupffer cells
Method: (§1) Human Kupffer cells (KCs), specialized liver macrophages residing in […], were obtained by gradient isolation from liver specimens harvested post-mortem by Samsara Sciences. Cells were obtained through an IRB approved donor program by Samsara Sciences and all donors tested negative for bacterial and viral infections.
(§2) Fresh or cryopreserved PMBCs were seeded in V-bottom 96-well plate at 0.5-1×10^5 cells per well and incubated overnight at 37° C. with 5% CO2 in RPMI 1640 medium with GlutaMAX supplement, 4.5 g/L D-glucose, 10% Fetal Bovine Serum (FBS), […] Sodium Pyruvate, 1% Penicillin/Streptomycin, 10 mM HEPES and 0.05 mM of β-mercaptoethanol. Freshly isolated or cryopreserved KCs cells were seeded in flat-bottom 96-well plates at 0.6-1.5×10^5 cells/well and incubated overnight at 37° C. 5% CO2 in RPMI 1640 Medium with GlutaMAX supplement, FBS, 1% Penicillin/Streptomycin and 10 mM HEPES. The following day, the cells were primed with 100 ng/mL of lipopolysaccharides (LPS; Sigma Aldrich) in FBS-free RPMI 1640 for 3 h. After the priming step, the media was removed and PBMCs were pre-incubated with serial concentrations of test compounds (0.00017-10 uM) or vehicle (DMSO) for 30 min in FBS-free media prior to addition of the NLRP3 activator. Cells were then stimulated with 10 uM Nigericin (Sigma Aldrich; InvivoGen) for 1.5 h. Plates were centrifuged at 1,500 rpm for 3 minutes to pellet cells and supernatant was transferred into new plates for subsequent experiments.
Viability of compound treated cells was measured using CellTiter-Glo® assay (Promega, Madison, Wis.) that measures the ATP content of cells which is proportional to the number of live cells within a well. This is a counter-screen to establish that the reduction of IL-1β levels in LPS and nigericin stimulated and compound treated cells is not due to cytotoxicity, but rather through the inhibition of the inflammasome pathway. Compounds inhibiting NRLP3 inflammasome activation ultimately increase the viability of LPS and nigericin stimulated cells by blocking NLRP3 mediated pyroptosis that would otherwise lead to cell lysis.

NLRP3 inflammasome [1] = target: T1, NLRP3 inflammasome (Homo sapiens, UniProt Q96P20); experiment: NLRP3 inflammasome activation assay in Kupffer cells, IL-1β release; set-up: were freshly isolated from human peripheral blood from healthy donors; StemCells Technologies; host or cells: primary human PBMCs, LPS-primed, nigericin-stimulated; conditions: LPS primed, nigericin
T1 sequence (Q96P20 whole entry): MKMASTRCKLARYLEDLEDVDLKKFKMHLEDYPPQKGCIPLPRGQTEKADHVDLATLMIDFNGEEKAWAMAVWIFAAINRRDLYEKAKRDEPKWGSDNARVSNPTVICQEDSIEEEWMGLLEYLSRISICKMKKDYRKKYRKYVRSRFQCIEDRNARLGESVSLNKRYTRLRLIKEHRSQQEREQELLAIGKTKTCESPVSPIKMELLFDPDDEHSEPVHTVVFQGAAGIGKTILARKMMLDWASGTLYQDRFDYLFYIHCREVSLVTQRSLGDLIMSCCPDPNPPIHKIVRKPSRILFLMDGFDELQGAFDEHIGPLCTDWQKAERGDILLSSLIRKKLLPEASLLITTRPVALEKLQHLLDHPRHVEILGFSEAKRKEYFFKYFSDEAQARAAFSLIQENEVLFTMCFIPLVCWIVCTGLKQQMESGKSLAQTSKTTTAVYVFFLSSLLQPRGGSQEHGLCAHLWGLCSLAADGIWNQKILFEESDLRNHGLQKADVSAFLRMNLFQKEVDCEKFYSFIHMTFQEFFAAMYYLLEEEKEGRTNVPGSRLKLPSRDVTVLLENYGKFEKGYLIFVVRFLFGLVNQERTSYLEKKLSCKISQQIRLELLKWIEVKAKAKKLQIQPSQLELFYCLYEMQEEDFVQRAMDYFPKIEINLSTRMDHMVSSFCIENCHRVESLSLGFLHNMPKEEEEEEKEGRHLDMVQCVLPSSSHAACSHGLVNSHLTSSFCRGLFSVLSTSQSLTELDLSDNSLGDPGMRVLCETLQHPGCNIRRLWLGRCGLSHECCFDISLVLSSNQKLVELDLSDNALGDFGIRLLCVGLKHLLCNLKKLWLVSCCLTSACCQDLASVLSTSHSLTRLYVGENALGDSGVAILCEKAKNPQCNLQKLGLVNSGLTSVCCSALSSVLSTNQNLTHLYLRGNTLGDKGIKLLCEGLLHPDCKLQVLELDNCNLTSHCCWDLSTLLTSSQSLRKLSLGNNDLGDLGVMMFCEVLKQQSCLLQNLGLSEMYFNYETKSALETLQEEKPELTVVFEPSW
Excerpt: Some of the following assays were used to determine the inhibitory activity of the compounds on the NLRP3 inflammasome using a common inflammasome activation stimuli—nigericin.
as §1, §2
(§3) For ELISA assays cells were seeded into 96-well plates. Post study, supernatants were removed and the levels of mature IL-1β, IL18 and TNFα (Quantikine ELISA, R&D systems) were measured in cell conditioned media by ELISA according to manufacturer's instructions.

NLRP3 inflammasome [2] = target: T1, NLRP3 inflammasome; experiment: NLRP3 inflammasome activation assay in PBMCs, IL-1β release (ELISA / HTRF); set-up: were freshly isolated from human peripheral blood from healthy donors; StemCells Technologies; host or cells: primary human PBMCs, LPS-primed, nigericin-stimulated; conditions: LPS primed
Procedure, shortened: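 Human PBMCs primed with 100 ng/mL LPS for 3 h, pre-treated with compound for 30 min (0.00017–10 µM, or from 40 µM in 2-fold 20-point series), then stimulated with 10 µM nigericin for 1.5 h at 37 °C. Released IL-1β in supernatant quantified by ELISA or by HTRF (665/620 ratio, overnight RT).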

TNFα [3] = experiment: TNFα counter-screen in LPS and nigericin stimulated Kupffer cells; conditions: human Kupffer cells
Method: as §1, §2, §3
(§4) TNFα levels of LPS and nigericin stimulated cells were measured by HTRF assay (Cisbio, Bedford, MA). […] Measuring TNFalpha production also serves as a technical counter-screen to eliminate compounds that interfere with the HTRF reagents. Thus compounds that inhibit both IL-1β and TNFα levels are triaged for either being non-selective for inflammasome or interfering with the HTRF readout.

TNFα [4] = experiment: TNFα counter-screen in LPS and nigericin stimulated PBMCs; conditions: human PBMCs
Method: Human peripheral blood mononuclear cells (PBMCs), consisting of lymphocytes (T, B and NK cells), monocytes and dendritic cells, were freshly isolated from human peripheral blood from healthy donors. Cells were obtained through an IRB approved donor program by iXCells Biotechnologies where all the donors were tested for bacterial and viral infections. Cells were purified from peripheral blood using ficoll gradient centrifugation.
as §2, §3, §4

NLRP3 inflammasome [5] = target: T1, NLRP3 inflammasome; experiment: THP-1 ASC-GFP speck assay; set-up: host or cells: THP-1 ASC-GFP cells, PMA-differentiated, LPS-primed, nigericin-stimulated; conditions: THP-1 ASC-GFP cells, PMA differentiated, LPS primed, 10 μM nigericin; read-out: THP1 ASC Speck IC50
Procedure, shortened: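 PMA-differentiated (500 ng/ml, overnight) THP-1 ASC-GFP cells primed with 1 μg/mL LPS for 3 h, preincubated 30 min with compound (top 40 μM, 2-fold, 20 points), then stimulated with 10 μM nigericin for 90 min at 37 °C. After fixation and Hoechst staining, imaging gave the percentage of cells bearing a GFP ASC speck.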

[6] = 10 uM nigericin, read-out: PBMC IL-1 β IC50
[7] = 10 μM nigericin, read-out: PBMC IL-1β IC50
[8] = human PBMCs, read-out: PBMC CTG IC50

IC50 (NLRP3 inflammasome [1]; read-out: Kupffer IL-β B IC50) | IC50 (NLRP3 inflammasome [2]; [6]) | IC50 (NLRP3 inflammasome [1]; read-out: Kupffer IL-1 β IC50) | IC50 (NLRP3 inflammasome [2]; [7]) | IC50 (NLRP3 inflammasome [5]) | SMILES | IC50 (PBMCs; Homo sapiens, PBMC) | IC50 (Kupffer cells) | IC50 (TNFα [3]) | IC50 (TNFα [4]; read-out: PBMC TNFα IC50) | IC50 (PBMCs; [8]) | IC50 (TNFα [4]; PBMC) | IC50 (TNFα [3]; read-out: Kupffer TNF α IC50) | IC50 (TNFα [4]; read-out: PBMC TNF α IC50)
100 to 1000 nM | < 100 nM | – | – | – | NS(=O)(=NC(=O)Nc1c2c(cc3c1CCC3)CCC2)c1cnn2c1OCCC2 (stereo not drawn) | 100 to 1000 nM | 100 to 1000 nM | – | – | – | – | – | –
– | – | 123 nM | 82 nM | – | NS(=O)(=NC(=O)Nc1c2c(cc3c1CCC3)CCC2)c1cnn2c1OCCC2 (racemic) [Example 1, N′-((1,2,3,5,6,7-hexahydro-s-indacen-4-yl)carbamoyl)-6,7-dihydro-5H-pyrazolo[5,1-b][1,3]oxazine-3-sulfonimidamide] | 300 nM | 103 nM | – | – | – | – | – | –
– | – | < 100 nM | 4 nM | – | COC1COc2c(S(N)(=O)=NC(=O)Nc3c4c(cc5c3CCC5)CCC4)cnn2C1 (single isomer, unassigned) [Example 20] | – | < 100 nM | > 10000 nM | > 10000 nM | 19 nM | – | – | –
– | – | 20 nM | 7.6 nM | 9.7 nM | CNC1COc2c(S(N)(=O)=NC(=O)Nc3c4c(cc5c3CCC5)CCC4)cnn2C1 (single isomer, unassigned) [Example 26] | – | 21 nM | > 10000 nM | – | 2 nM | > 10000 nM | – | –
– | – | – | 150 nM | 620 nM | COC1COc2c(S(N)(=O)=NC(=O)Nc3c4c(c(F)c5c3CCC5)CCC4)cnn2C1 (single isomer, unassigned) [Example 31] | – | – | – | – | 20 nM | > 10000 nM | – | –
– | – | – | 13 nM | 45 nM | COC1COc2c(S(N)(=O)=NC(=O)Nc3c4c(c(F)c5c3CCC5)CCC4)cnn2C1 (single isomer, unassigned) [Example 32] | – | – | – | > 10000 nM | 5 nM | – | – | –
– | – | – | 890 nM | 1600 nM | CN(C)C1COc2c(S(N)(=O)=NC(=O)Nc3c4c(cc5c3CCC5)CCC4)cnn2C1 (single isomer, unassigned) [Example 33] | 2 nM | – | – | – | – | > 10000 nM | – | –
< 100 nM | < 100 nM | – | – | – | CO[C@@H]1COc2c(S(=N)(=O)NC(=O)Nc3c4c(cc5c3CCC5)CCC4)cnn2C1 (stereo partly drawn) [drawing 668] | – | < 100 nM | – | – | < 100 nM | – | > 10000 nM | > 10000 nM
< 100 nM | < 100 nM | – | – | – | CN[C@@H]1COc2c(S(=N)(=O)NC(=O)Nc3c4c(cc5c3CCC5)CCC4)cnn2C1 (stereo partly drawn) [drawing 674] | – | < 100 nM | – | – | < 100 nM | – | > 10000 nM | > 10000 nM
